Where two headings read alike, the source gives them in different places.
Columns and labels:
[1] = humans, previously determined; cited from earlier work
[2] = human volunteers, cited from earlier work
[3] = Maximal tolerated dose in humans; type: in vivo, human; conditions: oral
[4] = in vivo
Excerpt: Inecalcitol is a synthetic derivative of calcitriol, the natural active metabolite of vitamin D3.

[5] = in vivo; cited from earlier work
[6] = in vivo; cited from earlier work; remark: listed apart in the source
[7] = rats; cited from earlier work
[8] = cynomolgus monkey, in vivo, po
Description: Male cynomolgus monkey received a single oral administration of a high dose of inecalcitol (2 mg/kg) in the same volume (5 ml/kg) for each excipient. Blood samples were drawn at the time of administration (To) and 15, 30, 45, 60, 90 minutes, 3, 6, 9 and 24 hours later. Plasma aliquots were prepared on heparinized tubes and unchanged inecalcitol was specifically assayed by HPLC/MS/MS method.

C=C1/C(=C\C=C2/CCC[C@]3(C)[C@@H]([C@H](C)CCCC(C)(C)O)CC[C@@H]23)C[C@@H](O)C[C@@H]1O [calcitriol, 1,25-dihydroxy-cholecalciferol]
maximal tolerated dose [1]: 45 μg once a week

C=C1CC[C@H](O)C/C1=C/C=C1\CCC[C@]2(C)[C@@H]([C@H](C)CCCC(C)C)CC[C@@H]12 [cholecalciferol]
bioavailability from arachis oil capsules versus MCT capsules ([2]; fasting state): about twice higher
bioavailability from arachis oil capsules versus MCT capsules ([2]; given with a standard meal): no difference was observed

C[C@H](CC#CC(C)(C)O)[C@H]1CC[C@@H]2/C(=C/C=C3C[C@@H](O)C[C@H](O)C3)CCC[C@@]21C [inecalcitol, 19-nor-9,10-seco-14βH-cholesta-5(Z),7(E)-dien-23-ino-1α,3β,25-triol-23-yne]
maximal tolerated dose [3]: 4 mg per day
calcemic activity [4]: very low calcemic activity
calcemic effects compared with calcitriol [5]: markedly lower calcemic effects

C=C1/C(=C\C=C2/CCC[C@]3(C)[C@@H]([C@H](C)/C=C/C=C/C(O)(CC)CC)CC[C@@H]23)C[C@@H](O)C[C@@H]1O [seocalcitol]
bioavailability of complex system versus simple solutions in MCT or LCT [6]: without any improvement in bioavailability
bioavailability, LCT- versus MCT-based formulations [7]: no difference was observed

Sunflower oil
absorption of inecalcitol compared with MCT (in words) [8]: better absorbed
AUC0-24 h (%) ([8]; 2 mg/kg): 132%
Cmax (−fold) ([8]; 2 mg/kg): 3.0 fold
Tmax ([8]; 2 mg/kg): 1.5 h

elocalcitol
maximal tolerated dose [1]: 150 μg per day
